Laboratory results as given in patent US3966930A, “Phenothiazine derivatives, compositions thereof and methods of preparation thereof” (Kefalas A/S, priority 1973, dated 1976).
Read-outs that look alike come from different tables or passages of the source.

Tested on: methylphenidate
Assay: Methylphenidate antagonism in mice (rapid screening test for neuroleptic drugs)
Format: in vivo, NMRI male mice
Settings: Mus musculus, ip
Procedure: 40 grams of 4-(2-hydroxyethyl)piperidine were then added, and the mixture heated for 17 hours at 90° Centigrade. The mixture was cooled, poured into water, extracted with 500 milliliters of ether, the ether extract washed five times with water and dried over anhydrous magnesium sulphate. The oxalate of 2-trifluoromethyl-7-fluoro-10-(3'-(4-(2-hydroxyethyl)piperidin-1-yl)propyl)phenothiazine was precipitated from acetone-/ether (1:1) and melts at 76°-80° Centigrade. The pharmacological testing of the compounds of the present invention consisted of a standard and reliable, published test showing the neuroleptic activity of the compounds in that they antagonize central nervous stimulating compounds such as amphetamine and methylphenidate. […] 1971, 29, suppl. 4, 44.
The test may briefly be described as follows:
As animals were used NMRI male mice weighing 18-25 grams. 3 × 2 mice are used for each dose level.
2, 6 or 24 hours after i.p.injection of test substance, methylphenidate, 60 mg/kg, is injected s.c. After administration of methylphenidate the mice are placed in the observation cages, 2 in each cage, where they remain for 2, 6 or 24 hours. The cages are placed on corrugated paper, the corrugations facing upwards. It is examined whether or not the mice have been biting the corrugated paper. […] If one or more of the control pairs have also not been biting the corrugated paper, the test has to be repeated on a new set of mice. The following novel substances of Formula I were tested: […]
As reference substances were used the corresponding known phenothiazines having no fluorine substitution at position 7, namely fluphenazine, perphenazine, thioproperazine, acetophenazine and chlorpromazine respectively.

[1] = 2 h after i.p. injection of test substance, methylphenidate 60 mg/kg s.c., mice, read-out: Methylphenidate Antagonism ED50, 2h
[2] = 6 h after i.p. injection of test substance, methylphenidate 60 mg/kg s.c., mice, read-out: Methylphenidate Antagonism ED50, 6h
[3] = 24 h after i.p. injection of test substance, methylphenidate 60 mg/kg s.c., mice, read-out: Methylphenidate Antagonism ED50, 24h
[4] = 2 h, read-out: Methylphenidate Antagonism ED50, 2h
[5] = 6 h, read-out: Methylphenidate Antagonism ED50, 6h
[6] = 24 h, read-out: Methylphenidate Antagonism ED50, 24h

Question: `CC(=O)c1ccc2c(c1)N(CCCN1CCN(CCO)CC1)c1ccccc1S2` [Acetophenazine] was tested. Which ED50 [1] did it give?
Answer: 0.2 mg/kg

Question: And the ED50 [2]?
Answer: 4.4 mg/kg

Question: What about the ED50 [3] of the same compound?
Answer: > 10 mg/kg

Question: How did the ED50 [4] turn out when `CN(C)CCCN1c2ccccc2Sc2ccc(Cl)cc21` [Chlorpromazine] was run?
Answer: 3.3 mg/kg

Question: And the ED50 [5]?
Answer: > 20 mg/kg

Question: And the ED50 [6]?
Answer: > 20 mg/kg

Question: With `OCCN1CCN(CCCN2c3ccccc3Sc3ccc(C(F)(F)F)cc32)CC1` [Fluphenazine] as the compound, how does the ED50 [1] read?
Answer: 0.08 mg/kg

Question: And the ED50 [2]?
Answer: 0.03 mg/kg

Question: What about the ED50 [3] of the same compound?
Answer: > 2.5 mg/kg

Question: For `OCCN1CCN(CCCN2c3ccc(F)cc3Sc3ccc(C(F)(F)F)cc32)CC1` [Lu 10-116, 2-trifluoromethyl-7-fluoro-10-(3'-(4-(2-hydroxyethyl)-piperazine-1-yl)propyl)phenothiazine], which ED50 [1] is on record?
Answer: 0.11 mg/kg

Question: And the ED50 [2]?
Answer: 0.01 mg/kg

Question: What about the ED50 [3] of the same compound?
Answer: 0.08 mg/kg

Question: How did the ED50 [1] turn out when `OCCN1CCN(CCCN2c3ccc(F)cc3Sc3ccc(Cl)cc32)CC1` [Lu 10-125, 2-chloro-7-fluoro-10-(3'-(4-(2-hydroxyethyl)-1-piperazinyl)propyl)-phenothiazine] was run?
Answer: 0.06 mg/kg

Question: What about the ED50 [2] of the same compound?
Answer: 0.05 mg/kg

Question: And the ED50 [3]?
Answer: > 5 mg/kg

Question: With `CN(C)CCCN1c2ccc(F)cc2Sc2ccc(Cl)cc21` [Lu 10-152, 2-chloro-7-fluoro-10-(3'-dimethylaminopropyl)-phenothiazine] as the compound, how does the ED50 [1] read?
Answer: 2 mg/kg

Question: What about the ED50 [2] of the same compound?
Answer: 2.1 mg/kg

Question: What about the ED50 [3] of the same compound?
Answer: > 20 mg/kg

Question: Which results are given for `CN1CCN(CCCN2c3ccc(F)cc3Sc3ccc(S(=O)(=O)N(C)C)cc32)CC1` [Lu 11-075, 2-dimethylsulfamoyl-7-fluoro-10-(3'-(4-methyl-piperazin-1-yl)-propyl)phenothiazine]?
Answer: ED50 [1]: 0.7 mg/kg; ED50 [2]: 0.44 mg/kg; ED50 [3]: > 5 mg/kg

Question: Which results are given for `CC(=O)c1ccc2c(c1)N(CCCN1CCN(CCO)CC1)c1ccc(F)cc1S2` [Lu 11-087, 2-acetyl-7-fluoro-10-(3'-(4-(2-hydroxyethyl)-1-piperazinyl)-propyl)phenothiazine]?
Answer: ED50 [1]: 0.06 mg/kg; ED50 [2]: 0.07 mg/kg; ED50 [3]: > 1.25 mg/kg

Question: `OCCN1CCN(CCCN2c3ccccc3Sc3ccc(Cl)cc32)CC1` [Perphenazine] was tested. Which ED50 [4] did it give?
Answer: 0.08 mg/kg

Question: What about the ED50 [5] of the same compound?
Answer: 0.55 mg/kg

Question: And the ED50 [6]?
Answer: > 5 mg/kg

Question: Which ED50 [1] does the source give for `CN1CCN(CCCN2c3ccccc3Sc3ccc(S(=O)(=O)N(C)C)cc32)CC1` [Thioproperazine] here?
Answer: 0.28 mg/kg

Question: And the ED50 [2]?
Answer: 1.2 mg/kg

Question: And the ED50 [3]?
Answer: > 5 mg/kg
